Data: patent publication US12152174B2, “Adjustably stable adhesive compositions for medical and non-medical uses, and recycling” (THE REGENTS OF THE UNIVERSITY OF CALIFORNIA, priority 2023, dated 2024)

Legend:
[1] = Storage stability of precursor or polymer against polymerization or depolymerization; format: physicochemical; conditions: coated and heated at 100° C for 4 hrs under vacuum, no stabilizer
Description: The self-catalysis of α-lipoic acid takes place by the activation of disulfide with a carboxylic acid. Thus, we hypothesized that introduction of a functional group with higher electron density than disulfide will act as a potential competitor of disulfide, thereby suppressing initiation. […] However, the liquid undergoes ultrafast polymerization when brought into contact with water (FIG. 1) to yield an adhesive polymer. We surmise that due to its higher hydration energy, L4 becomes solvated as it comes in contact with water, leading to disulfide activation by the carboxylic acids. This approach provides an adhesive precursor suitable for spray, brush or injection mode of application. […] The coated PET was heated at 100° C. for 4 hrs under vacuum. The heat created a stable, sticky viscoelastic polymer, showing that the stabilizer molecules are also effective at high temperatures. By comparison, for example, pure α-lipoic acid treated under similar conditions also forms a sticky polymer, but within 2-3 days becomes a solid crystalline spot indicating depolymerization of the polymer. Although a stabilizer is needed in many applications that require a prolonged stability, the poly(asparagusic acid) without the stabilizer is sufficiently stable for some uses. […]

[2] = Polymerization and depolymerization of ethanolic precursor on exposure to water or aqueous phosphate buffer; format: physicochemical; conditions: 400 mg/mL ethanolic solution added to aqueous phosphate buffer
Experimental: An ethanolic solution of pure α-lipoic acid L1 was prepared at 400 mg/mL and added to an aqueous phosphate buffer. A metastable sticky polymer was obtained, but within a few minutes (<5 min), the sticky polymer converted to a solid monomeric precipitate with no apparent adhesive property.
At any time prior to or after gelation of the precursor solution, exposure to water triggers dithiolane polymerization which can be exploited for the purposes of isolating a polymer adhesive or for adhering objects together. […] We believe α-lipoic acid undergoes self-catalyzed polymerization followed by stabilization with NHS esters. Nonetheless, the aqueous polymerization appears to be less sensitive and extremely fast irrespective of the solution concentrations. We believe that due to the amphiphilic nature of the α-lipoic acid, it undergoes micelle-like self-reorganization in contact with water, which locally concentrates the cyclic backbone to accelerate the polymerization rate. Furthermore, detailed ^1H NMR experiments of diluted ethanolic solution of the mixtures show excellent stability of the NHS esters even at an extended period. Therefore, this opens the possibility of an on-demand aqueous polymerization from a precursor ethanolic solution, which we considered to be advantageous for translation in medical and other underwater applications. […]

[3] = Gelation of ethanolic adhesive precursor solution; format: physicochemical; conditions: pure solution at similar concentration, extended periods of time
[4] = Lap shear tissue adhesion on wet bovine pericardium; conditions: adhesive with 14 mol % L2 vs 7 mol %
Experimental: An atomized spray was initially chosen, as it allows for quick evaporation of ethanol to increase the concentration of the mixture rapidly and eliminate any undesired flow of the adhesive solution on the tissue surfaces. A solution of L1 and L2 (7 mol %) was prepared and sprayed on two pieces of tissue surfaces (40 μL in 1 cm^2) and the two pieces were immediately brought into contact. After forming the lap joints, they were incubated for 2 minutes in PBS at 37° C. for further curing of the polymer network. The lap shear strength after 2 minutes on wet bovine pericardium tissue was >100 kPa, which was only slightly lower than medical-grade superglue (See FIG. 3A). […] The failure mode analyses of the lap joints was performed by applying N-bromo succinimide to the failed tissue surfaces to visually indicate by charge transfer complexation of disulfide functionality and therefore the presence of adhesive polymer. […] The enhanced lap shear strength at longer incubation time is consistent with the enhanced cohesive strength of the polymer network as observed in the rheology analysis of the wet polymer (see FIG. 2E).
Lap shear tissue adhesion was also performed with L3 on both wet bovine pericardium and pig skin.
To study the effect of stabilizer concentration on tissue adhesion strength, another lap shear test was performed with a higher L2 concentration (14 mol %). […]

SMILES | time until sticky polymer becomes solid crystalline spot (depolymerization) [1] | time until sticky polymer converted to solid monomeric precipitate (depolymerization) [2] | gel formation [3] | shear strength at higher stabilizer concentration [4]
O=C(O)CCCCC1CCSS1 (stereo not drawn) [L1, α-lipoic acid] | 2 to 3 days | < 5 min | did not form a gel | –
O=C(CCCCC1CCSS1)ON1C(=O)CCC1=O (stereo not shown) [L2, NHS-derivatized lipoic acid] | – | – | – | No significant difference
